Values quoted from earlier work in patent US20130065255A1, “Biomarker to Measure Drug Efficacy in Enteropathic Disease” (priority 2011, published 2013).

Columns and labels:
[1] = 20 mg simvastatin dose, healthy volunteers, Park et al
[2] = humans

Compound	SVA Cmax [1] [ng/mL]	dose excreted unchanged in the urine [2]
CCC(C)(C)C(=O)O[C@H]1C[C@@H](C)C=C2C=C[C@H](C)[C@H](CC[C@@H](O)C[C@@H](O)CC(=O)O)[C@H]21 [Simvastatin acid, simvastatin acid]	1.2 ± 1.0	
Cc1ncc2n1-c1ccc(Cl)cc1C(c1ccccc1F)=NC2 [midazolam]		less than 1%
